Data on 5 molecules can be found in patent US8399426B2, “Method for treating breast cancer using adenine nucleotide translocator 2 (ANT2) siRNA or ANT2 shRNA” (Bioinfra Inc., priority 2006, dated 2013).

In one data set the test system is MDA-MB-231 cell line. Put plainly: Sensitivity to doxorubicin, CCK8 assay, MDA-MB-231. The data set is classed as cell-based, human. The note with it: MDA-MB-231, doxorubicin 10 μM to zero, 10 hrs, no ANT2 shRNA. As for the experimental part:
The MDA-MB-231 cell line which has a predominant proportion of progenitor cells (CD44+/CD24−) was treated with 10-fold serial dilutions of doxorubicin, a widely used anticancer agent starting from 10 μM to zero, followed by incubation (10 hrs). The assay was conducted in the same manner as in Example 6.
In general terms: Formazan colour is commonly taken as a measure of viable cells.

Data set [1] has as its system breast cancer cell line MCF7. The experiment in a line: Sensitivity to doxorubicin, CCK8 assay, MCF7. The data set is classed as cell-based. The note with it: MCF7 progenitor cells (CD44+/CD24−) vs mixed population. As for the experimental part:
The breast cancer cell line MCF7, which has a minor proportion of progenitor cells (CD44+/CD24−), was treated with various concentrations of doxorubicin, widely used for the treatment of breast cancer, after which apoptosis was quantitatively analyzed using a CCK8 assay.

In a further data set the test system is MCF7 cells. The experiment in a line: Sensitivity to TRAIL, CCK8 assay, MCF7. The data set is classed as cell-based. The method, then: (§1) As breast cancer cell lines in this experiment, MCF7 resistant to TRAIL, and MDA-MB-231 highly sensitive to TRAIL were employed. MCF7 and MDA-MB-231 were treated with TRAIL at various concentrations after which cell death was analyzed with a CCK8 reagent. The CCK8 assay is a cell viability assay. Specifically, 100 μL of a cell suspension was placed onto each well (1×10^4 cells/well). The cells were treated with 10-fold serial dilutions of TRAIL starting from 1 μg/mL to zero, followed by incubation for 12 hrs. After the addition of 10 μL of the CCK8 reagent, the cells were incubated for a proper time (4 hours) in a CO2 incubator and measured for absorbance at 450 nm to analyze cell death.
However, the introduction of ANT2 shRNA into MCF7 cells induced apoptosis (−25%). […] As for a negative control, it was PBS for TRAIL, and sc shRNA (scrambled shRNA) for ANT2 shRNA.
After being treated with TRAIL alone, ANT2 shRNA alone, and TRAIL and ANT2 shRNA in combination, MCF7 cells, resistant to TRAIL, were examined for apoptosis, and the results are shown in FIG. 24C.
Furthermore, treatment with the p53 inhibitor (pifithrin-alpha) suppressed the up-regulation of TRAIL-mediated apoptosis by ANT2 shRNA, which confirmed that the introduction of ANT2 shRNA induced the expression and activity of p53, leading to an increase in sensitivity to TRAIL. The cell death was quantified using a CCK8 assay, with the use of PBS as a negative control for the p53 inhibitor (FIG. 28).

The next data set concerns DR4, DR5, DcR1 and DcR2. Put plainly: Expression of TRAIL receptors by Western blots, MCF7. The data set is classed as cell-based. The note with it: MCF7, pre-treatment with p53 inhibitor. The method, then:
The breast cancer cell lines MCF7 and MDA-MB-231, which are different in sensitivity to TRAIL from each other, were analyzed for expression levels of the receptors DR4, DR5, DcR1, and DcR2, all binding to TRAIL, by Western blots.
Upon the introduction of ANT2 shRNA, expression patterns of TRAIL receptors were examined, and the results are given in FIG. 26B. […] In T47D and BT474 cell lines, which are known to have TRAIL resistance, the same effects as in MCF7 were observed. That is, the introduction of ANT2 shRNA increased the expression of DR4 and DR5, but decreased the expression of DcR1 and DcR2 (FIG. 26C).
In addition, an experiment was performed to reconfirm that the introduction of ANT2 shRNA induces the expression and activity of p53, thus up-regulating the TRAIL receptors DR4 and DR5.

The test system of data set [2] is breast cancer cells (MDA-MB-231). The experiment in a line: Direct apoptosis, PI and Annexin V staining, FACS. Format: cell-based, human. The conditions noted are these: 48 hours from transfection. As for the experimental part: To investigate whether apoptosis could induced directly by ANT2 siRNA, the present inventors performed staining with propidium iodide (PI) and Annexin V.
Particularly, the cells were transfected respectively with ANT2 siRNA and scrambled siRNA, followed by culture for 24-48 hours. The cells were washed with PBS, to which PI and Annexin V were added. After reaction at room temperature for 15 minutes, […] was measured by FACS.

For another data set, the system named is MDA-MB-231 cells. The experiment in a line: Sensitivity to TRAIL, CCK8 assay, MDA-MB-231. Format: cell-based, human. The note with it: MDA-MB-231, TRAIL at various concentrations, 12 hrs. As for the experimental part: as §1
Data set [3] deals with breast cancer cell lines T47D and BT474. The experiment in a line: Sensitivity to TRAIL, CCK8 assay, T47D and BT474. Format: cell-based. The conditions noted are these: T47D and BT474, TRAIL alone. The source says: The same results as MCF7 were detected from the breast cancer cell lines T47D and BT474, both known to be resistant to TRAIL (FIG. 25A). For this, a CCK8 assay was employed to quantify the apoptosis.

Data set [4] has the same test system. Put plainly: Western blots of apoptosis-induced proteins (PARP, caspase-8/9/7, Bid, cytochrome C). The data set is classed as cell-based. The note with it: TRAIL alone. The source says: The increased sensitivity to TRAIL was reconfirmed to be attributed to the knockdown of ANT2 by shRNA. […] The empty vector pcDNA was introduced as a negative control for pcDNA-ANT2. When ANT2 shRNA increased sensitivity to TRAIL to induce apoptosis, the concurrent events of intracellular proteins (cleavage of PARP protein, cleavage of caspase-8/9/7, and truncation of Bid proteins) were detected by Western blots.
Because mitochondria play an important role in the regulation of apoptosis, cytochrome C, which is released from mitochondria to cytoplasm, was quantitatively monitored upon the ANT2 shRNA-triggered, TRAIL-mediated apoptosis. The mitochondrial protein COX IV was used as a loading control to guarantee the use of mitochondrial proteins in the same amount. No changes in the pattern of apoptosis-induced proteins were observed when TRAIL was used alone. […] These changes of intracellular protein patterns confirmed that ANT2 shRNA enhanced TRAIL-mediated apoptosis.
Background: Immunoblotting shows a protein as a band on a membrane.

The test system of the next data set is MCF7 tumor. Put plainly: In vivo tumor growth of MCF7 transplanted into nude mice; RT-PCR of TRAIL receptors in tumors. On the set-up: species or system Balb/c nude mice. The conditions noted are these: TRAIL alone, 10 mg/kg intraperitoneally, three treatments over 45 days. As for the experimental part: The breast cancer cell line MCF7 resistant to TRAIL was transplanted into immunedeficient Balb/c nude mice. When a tumor grew to a volume of 100 mm^3, they were treated with ANT2 shRNA and TRAIL. In this regard, TRAIL was intraperitoneally injected (10 mg/kg) while ANT2 shRNA was directly injected into the tumor (100 μg; supplemented 200 μl Lipofectamine™2000). At this time, Lipofectamine™2000 was used to deliver ANT2 shRNA into tumor cells. After three treatments over 45 days, the size of tumor was monitored. A same volume of PBS and sc shRNA was used as respective negative controls for TRAIL and […]. On 45th day, the animal models were subjected to euthanasia and the tumors were excised.

For the molecule `COc1cccc2c1C(=O)c1c(O)c3c(c(O)c1C2=O)C[C@@](O)(C(=O)CO)C[C@@H]3O[C@H]1C[C@H](N)[C@H](O)[C@H](C)O1` [doxorubicin], the sensitivity to doxorubicin result with MDA-MB-231 cell line was “neither progenitor cells (CD44+/CD24−) nor the non-progenitor cells were sensitive”; in [1], “less sensitive”.

Consider `Cc1ccc(C(=O)Cn2c3c(sc2=N)CCCC3)cc1` [pifithrin-alpha, reference compound], for which the “up-regulation of TRAIL-mediated apoptosis by ANT2 shRNA” value in the data set on MCF7 cells (MCF7, treatment with p53 inhibitor, CCK8) was “suppressed”. Also, the “up-regulation of DR4 and DR5 by ANT2 shRNA” value in the data set with DR4, DR5, DcR1 and DcR2 is given as “suppressed”.

On to “ANT2 siRNA-2: ANT2 siRNA for comparison, SEQ ID NO: 14, 5′-CUGACAUCAUGUACACAGG-3′ (listed as RNA, chemistry not given here)”, for which the “apoptosis, comparison among ANT2 siRNA, ANT2 siRNA-2 and ANT2 siRNA-3” value in data set [2] is given as “consistent”.

Regarding “ANT2 siRNA-3: ANT2 siRNA for comparison, SEQ ID NO: 15, 5′-GAUUGCUCGUGAUGAAGGA-3′ (listed as RNA, chemistry not given here)”, the “apoptosis, comparison among ANT2 siRNA, ANT2 siRNA-2 and ANT2 siRNA-3” value in [2] is reported as “consistent”.

B1: TRAIL: TRAIL/apo2 ligand, a member of tumor necrosis factor, can selectively kill cancer cells (protein, UniProt P50591 1-281, looked up)
Tumor necrosis factor ligand …: MAMMEVQGGPSLGQTCVLIVIFTVLLQSLCVAVTYVYFTNELKQMQDKYSKSGIACFLKEDDSYWDPNDEESMNSPCWQVKWQLRQLVRKMILRTSEETISTVQEKQQNISPLVRERGPQRVAAHITGTRGRSNTLSSPNSKNEKALGRKINSWESSRSGHSFLSNLHLRNGELVIHEKGFYYIYSQTYFRFQEEIKENTKNDKQMVQYIYKYTSYPDPILLMKSARNSCWSKDAEYGLYSIYQGGIFELKENDRIFVSVTNEHLIDMDHEASFFGAFLVG
Take B1: the apoptosis entry in the data set on MCF7 cells (MCF7, TRAIL 100 ng/mL) was “not induced to undergo apoptosis”. The TRAIL-mediated apoptosis entry with MCF7 cells (MCF7, TRAIL at various concentrations, 12 hrs) is given as “did not work”; with MDA-MB-231 cells, “induced”. Moreover, the “response to TRAIL” value in data set [3] was “resistant”. Moreover, in data set [4], the “changes in the pattern of apoptosis-induced proteins” value was “No changes”. Besides, the tumor growth entry in the data set with MCF7 tumor is “no significant influences”.
